# Test results taken from ChEMBL document CHEMBL5360655, “Design, Synthesis, and Biological Evaluation of Novel P2X7 Receptor Antagonists for the Treatment of Septic Acute Kidney Injury” (J Med Chem, 2023).
# Active and inactive are the calls of the source. The calls are words filed in the database; no cut-off is given here.
# Assays:
# [1] = target: Cytochrome P450 3A4 (Homo sapiens, UniProt P08684); assay: Inhibition of CYP3A4 in human liver microsomes using midazolam as substrate upto 100 uM incubated for 10 mins in presence of NADPH by LC-MS/MS analysis; type: ADME, Microsome
# Cytochrome P450 3A4, sequence (P08684 whole entry): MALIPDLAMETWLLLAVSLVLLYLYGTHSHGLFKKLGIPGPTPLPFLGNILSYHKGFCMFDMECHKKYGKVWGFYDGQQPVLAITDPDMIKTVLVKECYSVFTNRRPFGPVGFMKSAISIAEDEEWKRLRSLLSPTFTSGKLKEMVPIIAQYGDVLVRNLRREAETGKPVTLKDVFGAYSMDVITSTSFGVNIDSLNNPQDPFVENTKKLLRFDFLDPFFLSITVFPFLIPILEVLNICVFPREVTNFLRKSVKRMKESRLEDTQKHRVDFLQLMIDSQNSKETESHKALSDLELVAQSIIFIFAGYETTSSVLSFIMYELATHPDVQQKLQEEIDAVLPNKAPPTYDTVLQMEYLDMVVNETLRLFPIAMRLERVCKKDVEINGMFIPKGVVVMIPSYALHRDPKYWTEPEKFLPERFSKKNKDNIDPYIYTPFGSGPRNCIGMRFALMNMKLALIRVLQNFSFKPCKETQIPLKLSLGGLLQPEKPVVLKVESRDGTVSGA
# [2] = target: T1, P2X purinoceptor 7 (Homo sapiens, UniProt Q99572); assay: Antagonist activity at P2X7 receptor in human THP-1 cells assessed as inhibition of ATP-induced IL-1beta secretion pretreated with LPS for 3 hrs followed by incubation with compound for 40 mins followed by treatment with ATP for 1 hr by ELISA; type: cell-based
# T1 sequence (Q99572 whole entry): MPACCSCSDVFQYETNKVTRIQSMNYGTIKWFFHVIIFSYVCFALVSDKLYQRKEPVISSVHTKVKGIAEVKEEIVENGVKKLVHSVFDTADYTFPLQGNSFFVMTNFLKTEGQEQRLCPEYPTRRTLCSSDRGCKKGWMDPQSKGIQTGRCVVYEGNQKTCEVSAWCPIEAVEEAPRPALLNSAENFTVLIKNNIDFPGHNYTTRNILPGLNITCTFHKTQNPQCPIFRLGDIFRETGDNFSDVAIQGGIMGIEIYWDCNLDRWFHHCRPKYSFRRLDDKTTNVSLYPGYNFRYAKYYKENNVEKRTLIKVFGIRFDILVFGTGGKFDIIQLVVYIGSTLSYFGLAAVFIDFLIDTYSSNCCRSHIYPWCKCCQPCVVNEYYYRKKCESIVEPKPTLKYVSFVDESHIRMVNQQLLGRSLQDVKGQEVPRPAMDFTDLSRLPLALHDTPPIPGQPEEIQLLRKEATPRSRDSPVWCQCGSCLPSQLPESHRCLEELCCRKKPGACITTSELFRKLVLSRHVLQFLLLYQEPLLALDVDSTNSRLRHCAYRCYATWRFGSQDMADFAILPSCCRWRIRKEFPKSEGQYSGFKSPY
# [3] = target: Cytochrome P450 2C9 (Homo sapiens, UniProt P11712); assay: Inhibition of CYP2C9 in human liver microsomes using tolbutamide as substrate upto 100 uM incubated for 10 mins in presence of NADPH by LC-MS/MS analysis; type: ADME, Microsome
# Cytochrome P450 2C9, sequence (P11712 whole entry): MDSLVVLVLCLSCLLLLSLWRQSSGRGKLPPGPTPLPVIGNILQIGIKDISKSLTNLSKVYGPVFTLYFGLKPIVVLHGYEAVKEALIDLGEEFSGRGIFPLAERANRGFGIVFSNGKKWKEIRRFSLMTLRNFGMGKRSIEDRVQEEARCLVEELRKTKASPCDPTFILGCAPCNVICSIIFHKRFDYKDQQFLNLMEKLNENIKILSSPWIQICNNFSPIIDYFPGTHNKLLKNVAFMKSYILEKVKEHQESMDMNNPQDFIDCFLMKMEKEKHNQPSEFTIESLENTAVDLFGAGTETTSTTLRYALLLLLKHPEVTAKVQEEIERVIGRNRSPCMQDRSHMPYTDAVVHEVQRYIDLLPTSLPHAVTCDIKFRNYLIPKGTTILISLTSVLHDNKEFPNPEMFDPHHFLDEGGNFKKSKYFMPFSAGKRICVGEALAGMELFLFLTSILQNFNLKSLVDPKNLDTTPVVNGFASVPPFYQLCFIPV
# [4] = tested on: Mus musculus; assay: Reno-protective activity against CLP-induced acute kidney injury C57BL/6J mouse model assessed as decrease in cleaved caspase 1 (p20) protein expression in kidney at 20 mg/kg, ip administered twice at 30 mins prior to CLP operation and 8 hrs post-CLP operation and measured at 16 hrs post-CLP operation by western blot analysis; type: functional, organism-based; details: time 16.5 hrs
# [5] = Half life in human liver microsomes; type: ADME, Microsome
# [6] = Tmax in BALB/c mouse at 10 mg/kg, iv measured for 24 hrs by LC-MS/MS analysis; type: ADME, organism-based; details: in vivo
# [7] = tested on: Mus musculus; assay: Reno-protective activity against CLP-induced acute kidney injury C57BL/6J mouse model assessed as decrease in KIM1 mRNA expression in kidney at 20 mg/kg, ip administered twice at 30 mins prior to CLP operation and 8 hrs post-CLP operation and measured at 16 hrs post-CLP operation by RT-qPCR analysis; type: functional, organism-based; details: time 16.5 hrs
# [8] = Tmax in BALB/c mouse at 10 mg/kg, ip measured for 24 hrs by LC-MS/MS analysis; type: ADME, organism-based; details: in vivo
# [9] = target: Voltage-gated inwardly rectifying potassium channel KCNH2 (Homo sapiens, UniProt Q12809); assay: Inhibition of hERG expressed in CHO cells; type: toxicity, cell-based
# Voltage-gated inwardly rectifying potassium channel KCNH2, sequence (Q12809 whole entry): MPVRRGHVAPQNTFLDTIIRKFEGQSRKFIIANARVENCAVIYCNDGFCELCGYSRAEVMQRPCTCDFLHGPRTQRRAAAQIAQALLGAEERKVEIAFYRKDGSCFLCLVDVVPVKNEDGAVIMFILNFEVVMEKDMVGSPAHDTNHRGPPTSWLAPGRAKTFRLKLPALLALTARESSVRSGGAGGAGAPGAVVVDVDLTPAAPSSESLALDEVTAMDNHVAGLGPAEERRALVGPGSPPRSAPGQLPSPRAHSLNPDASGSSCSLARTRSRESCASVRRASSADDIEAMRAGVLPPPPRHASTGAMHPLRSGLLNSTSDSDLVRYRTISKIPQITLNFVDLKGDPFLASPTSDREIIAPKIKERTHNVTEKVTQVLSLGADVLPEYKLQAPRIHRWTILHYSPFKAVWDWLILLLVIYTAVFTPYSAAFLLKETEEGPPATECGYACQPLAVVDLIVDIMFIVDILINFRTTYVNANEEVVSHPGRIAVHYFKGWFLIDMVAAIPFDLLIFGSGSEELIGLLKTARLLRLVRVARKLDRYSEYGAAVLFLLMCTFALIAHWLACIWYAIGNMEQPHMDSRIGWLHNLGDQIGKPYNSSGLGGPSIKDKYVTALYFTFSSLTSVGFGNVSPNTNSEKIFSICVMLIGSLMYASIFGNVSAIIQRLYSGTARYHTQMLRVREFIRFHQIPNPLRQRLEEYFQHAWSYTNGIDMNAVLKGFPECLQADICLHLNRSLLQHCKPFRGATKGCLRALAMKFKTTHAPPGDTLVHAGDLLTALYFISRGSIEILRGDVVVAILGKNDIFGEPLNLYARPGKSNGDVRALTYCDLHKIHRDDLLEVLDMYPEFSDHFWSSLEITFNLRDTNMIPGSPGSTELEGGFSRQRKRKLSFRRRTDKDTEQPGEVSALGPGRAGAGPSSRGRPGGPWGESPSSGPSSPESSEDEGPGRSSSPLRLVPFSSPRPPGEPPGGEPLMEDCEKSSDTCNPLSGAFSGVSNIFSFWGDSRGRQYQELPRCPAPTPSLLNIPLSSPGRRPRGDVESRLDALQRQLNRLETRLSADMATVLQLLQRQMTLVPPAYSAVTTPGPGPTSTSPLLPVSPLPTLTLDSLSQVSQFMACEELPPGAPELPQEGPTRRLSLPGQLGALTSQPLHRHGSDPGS
# [10] = Toxicity in C57BL/6J mouse assessed as pathological changes in lungs at 20 mg/kg, ip administered twice at 0 hrs and 8 hrs and measured after 16 hrs by Hematoxylin-Eosin staining based analysis; type: organism-based; details: in vivo
# [11] = tested on: Mus musculus; assay: Reno-protective activity against LPS-induced acute kidney injury C57BL/6J mouse model assessed as decrease in tubular injury by measuring improvement of infiltration of inflammatory cells at 5 to 20 mg/kg, ip administered twice at 30 mins prior to LPS challenge and 8 hrs post-LPS challenge and measured at 16 hrs post-LPS challenge by Hematoxylin-Eosin staining based analysis; type: functional, organism-based; details: dose 5-20 mg/kg, time 16.5 hrs
# [12] = Intrinsic clearance in mouse liver microsomes; type: ADME, Microsome; details: read-out: CLH
# [13] = target: T2, P2X purinoceptor 7 (Mus musculus) (UniProt Q9Z1M0); assay: Antagonist activity at mouse P2X7 receptor expressed in HEK293 cells assessed as inhibition of ATP-induced receptor pore formation at 200 nM by propidium iodide dye uptake based fluorescence analysis; type: cell-based; details: filed as antagonist
# T2 sequence (whole entry): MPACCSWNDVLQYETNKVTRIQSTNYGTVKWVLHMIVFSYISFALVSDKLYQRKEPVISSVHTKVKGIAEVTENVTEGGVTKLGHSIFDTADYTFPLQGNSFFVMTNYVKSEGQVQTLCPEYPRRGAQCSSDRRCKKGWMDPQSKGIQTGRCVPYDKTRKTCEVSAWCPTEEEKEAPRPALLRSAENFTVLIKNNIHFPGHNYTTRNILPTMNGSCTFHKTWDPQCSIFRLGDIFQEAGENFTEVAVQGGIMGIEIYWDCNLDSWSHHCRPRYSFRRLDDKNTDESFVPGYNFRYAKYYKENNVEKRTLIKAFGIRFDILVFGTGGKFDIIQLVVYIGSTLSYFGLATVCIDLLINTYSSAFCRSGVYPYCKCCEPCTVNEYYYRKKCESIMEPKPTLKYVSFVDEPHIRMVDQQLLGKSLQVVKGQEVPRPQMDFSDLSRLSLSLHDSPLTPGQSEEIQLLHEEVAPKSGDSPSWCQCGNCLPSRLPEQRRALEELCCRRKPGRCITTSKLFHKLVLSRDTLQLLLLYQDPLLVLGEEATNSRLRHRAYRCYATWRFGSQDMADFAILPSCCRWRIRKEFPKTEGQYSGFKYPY
smiles,measurement,setting,value
CS(=O)(=O)c1ccc(-c2nc(C(=O)NCc3cn(-c4cc(Br)ccn4)nn3)cs2)cc1,inhibition (INH),[1],Not Active
same,IC50,[2],327 nM
same,inhibition (INH),[3],Not Active
same,Activity,[4],Active
same,half-life,[5],1.75 h
same,Tmax,[6],0.19 h
same,Activity,[7],Active
same,Tmax,[8],3 h
same,IC50,[9],> 30000 nM
same,Activity,[10],Non-Toxic
same,Activity,[11],Dose-Dependent Effect
same,CLint scaled,[12],< 12 mL/min/kg
same,inhibition,[13],101%
